This is an account of results in ChEMBL document CHEMBL1142587, “Rhizochalin A, a novel two-headed sphingolipid from the sponge Rhizochalina incrustata” (J Nat Prod, 2005).

≈ marks a conversion by molar mass, not a printed value.

The test has as its system Ehrlich. Nature of the test: Cytotoxicity against mouse Ehrlich cells. Type of test: functional, cell-based.

For `C[C@@H](N)[C@H](O)CCCCCCCC(=O)CCCCCCCCCCCCCC[C@@H](O[C@@H]1O[C@H](CO)[C@H](O)[C@H](O)[C@H]1O)[C@@H](C)N` [RHIZOCHALIN], the IC50 (usually the midpoint of a concentration-inhibition curve) worked out at 10 µg/mL (≈ 15.8 µM).
